Experimental data from ChEMBL document CHEMBL5126645, “Cancer-Cell-Selective Targeting by Arylcyclopropylamine-Vorinostat Conjugates” (ACS Med Chem Lett, 2022).
Activity calls are given as the source filed them. The calls are words filed in the database; no cut-off is given here.

What was measured:
[1] = tested on: MDA-MB-231; test: cells; assay type: functional; conditions: Homo sapiens, MDA-MB-231, 72 h; time 3 day
Description: Antiproliferative activity against human MDA-MB-231 cells assessed as inhibition of cell growth incubated for 3 days by alamar blue assay

[2] = tested on: NCI-H526; test: cells; assay type: functional; conditions: Homo sapiens, NCI-H526, 72 h; time 3 day
Description: Antiproliferative activity against human NCI-H526 cells assessed as inhibition of cell growth incubated for 3 days by alamar blue assay

[3] = in vitro; conditions: human, HMEC cells versus MDA-MB-231 cells
Description: Selectivity index, ratio of IC50 for cytotoxicity against HMEC cells to GI50 for antiproliferative activity against human MDA-MB-231 cells

[4] = target: T1, Lysine-specific histone demethylase 1A (Homo sapiens, UniProt O60341)
Description: Inhibition of LSD1 (unknown origin) using H3K4me2 peptide as substrate preincubated for 15 mins followed by substrate addition and measured after 30 mins by fluorescence based analysis

[5] = in vitro; conditions: human, HMEC cells
Description: Cytotoxicity against HMEC cells assessed as inhibition of cell growth incubated for 3 days by alamar blue assay

[6] = Stability of compound in buffer at pH 7.4; assay type: physicochemical
[7] = target: T1, Lysine-specific histone demethylase 1A; test: Potency index, ratio of phenylcyclopropylamine IC50 to test compound IC50 for inhibition of LSD1 (unknown origin) using H3K4me2 peptide as substrate preincubated for 15 mins followed by substrate addition and measured after 30 mins by fluorescence based analysis; conditions: time 45.0 min
[8] = target: T1, Lysine-specific histone demethylase 1A; test: Prodrug conversion assessed as LSD1 (unknown origin)-mediated vorinostat release incubated for 24 hrs by HPLC analysis; assay type: ADME
[9] = Stability of compound in HEPES buffer at pH 7.4 at 100 uM incubated for 24 hrs by HPLC analysis; assay type: physicochemical; conditions: pH 7.4, 24 h
[10] = tested on: MDA-MB-231; test: Synergistic antiproliferative activity against human MDA-MB-231 cells assessed as inhibition of cell growth incubated for 3 days in presence of LSD1 inhibitor, NCD38 by alamar blue assay; assay type: functional, cell-based; conditions: time 3.0 day
[11] = in vitro; conditions: human, HMEC cells versus NCI-H526 cells
Description: Selectivity index, ratio of IC50 for cytotoxicity against HMEC cells to GI50 for antiproliferative activity against human NCI-H526 cells

[12] = target: Histone deacetylase 1 (Homo sapiens) (UniProt Q13547); test: Inhibition of HDAC1 in human NCI-H526 cells assessed as increase in H3K4 methylation at 16 uM measured after 24 to 72 hrs by Western blot analysis; assay type: cell-based; conditions: time 24-72 hrs
Chain of Histone deacetylase 1 (Homo sapiens) (Q13547 whole entry): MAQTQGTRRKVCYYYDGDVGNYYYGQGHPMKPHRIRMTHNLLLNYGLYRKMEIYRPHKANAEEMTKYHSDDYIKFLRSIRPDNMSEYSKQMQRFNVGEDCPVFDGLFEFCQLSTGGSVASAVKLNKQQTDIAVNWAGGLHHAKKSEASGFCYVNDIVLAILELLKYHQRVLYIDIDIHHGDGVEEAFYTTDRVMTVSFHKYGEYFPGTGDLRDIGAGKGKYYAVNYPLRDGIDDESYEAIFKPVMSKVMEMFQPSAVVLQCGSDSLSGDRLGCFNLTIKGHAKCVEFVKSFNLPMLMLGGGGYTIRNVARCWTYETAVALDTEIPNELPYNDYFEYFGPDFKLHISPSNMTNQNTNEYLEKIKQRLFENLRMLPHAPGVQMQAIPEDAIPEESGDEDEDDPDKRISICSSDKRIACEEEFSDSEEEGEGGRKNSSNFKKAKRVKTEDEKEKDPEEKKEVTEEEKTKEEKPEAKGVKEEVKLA

[13] = tested on: MDA-MB-231; test: Additive antiproliferative activity against human MDA-MB-231 cells assessed as inhibition of cell growth incubated for 3 days in presence of 4-(Chloromethyl)phenyl acetate by alamar blue assay; assay type: functional, cell-based; conditions: time 3.0 day
[14] = tested on: MDA-MB-231; test: Synergistic antiproliferative activity against human MDA-MB-231 cells assessed as inhibition of cell growth incubated for 3 days in presence of vorinostat by alamar blue assay; assay type: functional, cell-based; conditions: time 3.0 day
[15] = target: Histone deacetylase 1 (Homo sapiens) (UniProt Q13547); test: Potency index, ratio of vorinostat IC50 to test compound IC50 for inhibition of HDAC1 human NCI-H526 cells measured after 24 to 72 hrs by Western blot analysis; assay type: cell-based; conditions: time 24-72 hrs
[16] = target: Histone deacetylase 1 (Homo sapiens) (UniProt Q13547); test: Inhibition of HDAC1 in human NCI-H526 cells assessed as increase in H3K9 acetylation at 16 uM measured after 24 to 72 hrs by Western blot analysis; assay type: cell-based; conditions: time 24-72 hrs

SMILES | GI50 [1] | GI50 [2] | selectivity ratio [3] | IC50 [4] | IC50 at 3 days [5] | other results
CC(=O)Oc1ccc(CCl)cc1 | 2050 nM | 2020 nM |  |  |  | 
CN(CCN(C)C1CC1c1ccccc1)C(=O)Oc1ccc(CONC(=O)CCCCCCC(=O)Nc2ccccc2)cc1 (centres undefined) | 34300 nM |  | > 2.92 | 1290 nM | > 100000 nM | Stability [6]: Stable; Ratio IC50 [7]: 19; Drug metabolism [8]: Metabolite_Detected
CNC(=O)c1cccc(-c2ccc([C@@H]3C[C@H]3N(C)CCN(C)C(=O)Oc3ccc(CONC(=O)CCCCCCC(=O)Nc4ccccc4)cc3)cc2)c1 |  |  |  | 444 nM |  | 
CNC(=O)c1cccc(-c2ccc([C@H]3C[C@@H]3N(C)CCN(C)C(=O)Oc3ccc(CONC(=O)CCCCCCC(=O)Nc4ccccc4)cc3)cc2)c1 |  |  |  | 457 nM |  | 
CN(CCN(C)C1CC1c1ccccc1)C(=O)ONC(=O)CCCCCCC(=O)Nc1ccccc1 (centres undefined) |  |  |  |  |  | Stability [9]: Unstable
CNC(=O)c1cccc(-c2ccc(C3CC3N(C)CCN(C)C(=O)Oc3ccc(CONC(=O)CCCCCCC(=O)Nc4ccccc4)cc3)cc2)c1 (racemic) | 4490 nM | 1000 nM | > 22.3 | 126 nM | > 100000 nM | Activity [10]: Active; selectivity ratio [11]: > 100; inhibition [12]: Active; Activity [13]: Active; Activity [14]: Active; Ratio IC50 [15]: 40; inhibition [16]: Active
